Data reported in patent publication US12319913B2, “5-halouracil-modified microRNAs and their use in the treatment of cancer” (The Research Foundation for The State University of New York, priority 2018, dated 2025).
[5FU] = 5-fluorouracil base replacing uracil

What was measured:
Type in all cases: cell-based, human
[1] = system: Panc-1 pancreatic cancer cells; assay: Cell proliferation, Panc-1; conditions: PANC-1; 50 nM, 25 nM, 12.5 nM, 6.25 nM, and 3.125 nM
Protocol: (§1) […] For reagent free transfection, cells were plated in 6 well plates at (1×10^5) cells per well. Twenty-four hours later 100 pmol miRNA (Control, miR-15a, Mimic-1) were diluted in Optimem (Thermo Fischer) and added to the plate. Media was changed after 24 hours. Media was supplemented with 10% fetal bovine serum (Thermo Fischer). Briefly, cells were cultured in growth media (DMEM/F12 supplemented with B27, 10 ng/mL bFGF, and 20 ng/mL EGF (Life Technologies) in ultra-low attachment flasks) for up to 6 days. The spheroid cells were maintained by collection through gentle centrifugation, dissociation to single cells and replating.
(§2) Cell proliferation assay: Twenty-four hours after transfection, cells were seeded in 96-well plates at a density of 2000 cells per well. The cell proliferation assay was performed on days 1 to 5 by incubating 10 μl WST-1 (Roche Applied Science, Mannheim, Germany) in the culture medium for 1 h and reading the absorbance at 450 and 630 nm. The cell proliferation rate was calculated by subtracting the […]. Experiments for the cell proliferation assay were performed at least three times. The O.D. was calculated by subtracting the absorbance at 630 nm from that at 450 nm. Proliferation experiments were performed three times.

[2] = system: AsPC-1 pancreatic cancer cells; assay: Cell proliferation, AsPC-1; conditions: APSC-1; 50 nM, 25 nM, 12.5 nM, 6.25 nM, and 3.125 nM
Protocol: as §1, §2

[3] = system: A549 lung cancer cells; assay: Cell proliferation, A549; conditions: A549, compared to negative controls
Protocol: (§3) For transfections, 1×10^5 cells were plated in six-well plates and transfected with 100 nM of control non-specific miRNA (Thermo Fischer), a modified microRNA, or exogenous native microRNA after 24 hours using Oligofectamine (Thermo Fischer) following the manufacturer's protocols. For reagent free transfection, cells were plated in 6 well plates at (1×10^5) cells per well. Twenty-four hours later 100 pmol miRNA (Control, miR-15a, Mimic-1) were diluted in Optimem (Thermo Fischer) and added to the plate. Media was changed after 24 hours. Media was supplemented with 10% fetal bovine serum (Thermo Fischer). Briefly, cells were cultured in growth media (DMEM/F12 supplemented with B27, 10 ng/mL bFGF, and 20 ng/mL EGF (Life Technologies) in ultra-low attachment flasks) for up to 6 days. The spheroid cells were maintained by collection through gentle centrifugation, dissociation to single cells and replating.
as §2

[4] = system: Hs766T pancreatic cancer cells; assay: Cell proliferation, Hs766T; conditions: compared to negative controls
Protocol: as §3, §2

[5] = system: AGS stomach cancer cells; assay: Cell proliferation, AGS; conditions: compared to negative controls
Protocol: as §3, §2

[6] = system: SKBR3 breast cancer cells; assay: Cell proliferation, SKBR3; conditions: SKBR3, compared to negative controls
Protocol: as §3, §2

[7] = system: acute lymphocytic leukemia cell line (REH); assay: Cell proliferation, REH; conditions: compared to negative controls
Protocol: as §3, §2

[8] = system: acute lymphocytic leukemia cell line (REH); assay: Cell proliferation, REH; conditions: 50 nM, 25 nM, 12.5 nM, 6.25 nM, and 3.125 nM

“CAGU^FGGU^FU^FU^FU^FACCCU^FAU^FGGU^F AG (CAGUGGUUUUACCCUAUGGUAG; RNA, [5FU] at 4, 7, 8, 9, 10, 15, 17, 20, backbone not given here) [modified miR-140 [SEQ ID NO. 16]]” was tested, and the “cell proliferation, dose dependence” value [1] was “inhibited in a dose dependent manner”, the “cell proliferation, dose dependence” value [2] was “inhibited in a dose dependent manner” and the “lung cancer cell proliferation” value [3] was “inhibited”. For the same substance, the “pancreatic cancer cell proliferation” value [4] was “inhibited”, the “gastric cancer cell proliferation” value [5] was “inhibited” and the “breast cancer cell proliferation” value [6] was “inhibited”. The “leukemia cancer cell proliferation” value [7] was “inhibited” and the “leukemia cancer cell proliferation, dose dependence” value [8] was “inhibited in a dose dependent manner”.

“U^FGU^FAACAGCAACU^FCCAU^FGU^FGGA (UGUAACAGCAACUCCAUGUGGA; RNA, [5FU] at 1, 3, 13, 17, 19, backbone not given here) [modified miR-194]” was tested, and the “cell proliferation, dose dependence” value [1] was “inhibited in a dose dependent manner”, the “cell proliferation, dose dependence” value [2] was “inhibited in a dose dependent manner” and the “lung cancer cell proliferation” value [3] was “inhibited”. The “pancreatic cancer cell proliferation” value [4] was “inhibited”, the “gastric cancer cell proliferation” value [5] was “inhibited” and the “breast cancer cell proliferation” value [6] was “inhibited”. The “leukemia cancer cell proliferation” value [7] was “inhibited” and the “leukemia cancer cell proliferation, dose dependence” value [8] was “inhibited in a dose dependent manner”.

For “AU^FCCU^FU^FGCUAU^FCU^FGGGU^FGCU^FA (AUCCUUGCUAUCUGGGUGCUA; RNA, [5FU] at 2, 5, 6, 11, 13, 17, 20, backbone not given here) [modified miR-502]”, the “cell proliferation, dose dependence” value [1] was “inhibited in a dose dependent manner”, the “cell proliferation, dose dependence” value [2] was “inhibited in a dose dependent manner” and the “lung cancer cell proliferation” value [3] was “inhibited”. The “pancreatic cancer cell proliferation” value [4] was “inhibited”, the “gastric cancer cell proliferation” value [5] was “inhibited” and the “breast cancer cell proliferation” value [6] was “inhibited”. The “leukemia cancer cell proliferation” value [7] was “inhibited” and the “leukemia cancer cell proliferation, dose dependence” value [8] was “inhibited in a dose dependent manner”.

In the case of “U^FAU^FU^FCAGGAAGGU^FGU^FU^FACU^FU^FAA (UAUUCAGGAAGGUGUUACUUAA; RNA, [5FU] at 1, 3, 4, 13, 15, 16, 19, 20, backbone not given here) [modified miR-506, miR-506 in which all (8) U bases are replaced by 5-fluorouracil]”, the “cell proliferation, dose dependence” value [1] is reported as “inhibited in a dose dependent manner”, the “cell proliferation, dose dependence” value [2] is reported as “inhibited in a dose dependent manner” and the “lung cancer cell proliferation” value [3] is reported as “inhibited”. The “pancreatic cancer cell proliferation” value [4] was “inhibited”, the “gastric cancer cell proliferation” value [5] was “inhibited” and the “breast cancer cell proliferation” value [6] was “inhibited”. The “leukemia cancer cell proliferation” value [7] was “inhibited” and the “leukemia cancer cell proliferation, dose dependence” value [8] was “inhibited in a dose dependent manner”.

For “U^FGGCAGU^FGU^FCU^FU^FAGCU^FGGU^FU^FGU^F (UGGCAGUGUCUUAGCUGGUUGU; all U replaced by 5-fluorouracil, chemistry not fully specified) [modified miR-34, miR-34 in which all (9) U bases are replaced by 5-fluorouracil]”, the “cell proliferation, dose dependence” value [1] was “inhibited in a dose dependent manner”, the “cell proliferation, dose dependence” value [2] was “inhibited in a dose dependent manner” and the “lung cancer cell proliferation” value [3] was “inhibited”. The “pancreatic cancer cell proliferation” value [4] was “inhibited”, the “gastric cancer cell proliferation” value [5] was “inhibited” and the “breast cancer cell proliferation” value [6] was “inhibited”. For the same substance, the “leukemia cancer cell proliferation” value [7] was “inhibited” and the “leukemia cancer cell proliferation, dose dependence” value [8] was “inhibited in a dose dependent manner”.

For “U^FAAU^FACU^FGCCGGGU^FAAU^FGAU^FGGA [modified miR-200c]”, the “cell proliferation, dose dependence” value [1] was “inhibited in a dose dependent manner”, the “cell proliferation, dose dependence” value [2] was “inhibited in a dose dependent manner” and the “lung cancer cell proliferation” value [3] was “inhibited”. The “pancreatic cancer cell proliferation” value [4] was “inhibited”, the “gastric cancer cell proliferation” value [5] was “inhibited” and the “breast cancer cell proliferation” value [6] was “inhibited”. The “leukemia cancer cell proliferation” value [7] was “inhibited” and the “leukemia cancer cell proliferation, dose dependence” value [8] was “inhibited in a dose dependent manner”.
